Assay results published in US12479831B2, “Substituted N(-methyl-D3)pyridazine-3-carboxamide or M-(methyl-D3)-nicotinamide compounds as IL-12, IL-23 and/or IFNα modulators” (BRISTOL-MYERS SQUIBB COMPANY, priority 2020, dated 2025).

These molecules were tested on IFNα-Induced STAT Phosphorylation in Human Whole Blood (assay: IFNα-Induced STAT Phosphorylation in Human Whole Blood). Conditions: 1 h incubation with compound, 1000 U/mL recombinant human IFNα A/D for 15 min, pSTAT5 (pY694) median fluorescence intensity in CD3 positive population, read-out: hWB IC50.
Type: cell-based
Protocol: IFNα-Induced STAT Phosphorylation in Human Whole Blood
After an hour long incubation with compound, human whole blood (drawn with either EDTA or ACD-A as anti-coagulant) was stimulated with 1000 U/mL recombinant human IFNα A/D (R&D Systems 11200-2) for 15 min. The stimulation was stopped by adding Fix/Lyse buffer (BD 558049). Cells were stained with a CD3 FITC antibody (BD 555916), washed, and permeabilized on ice using Perm III buffer (BD 558050). […] The amount of pSTAT5 expression was quantitated by median fluorescence intensity after gating on the CD3 positive population.
IFNα-Induced STAT Phosphorylation in Human Whole Blood Inhibition Data

**Q.** How did the IC50 turn out when `[2H]C([2H])([2H])NC(=O)c1cnc(Nc2ccc(C(F)(F)F)nn2)cc1Nc1cccc(-c2ncccn2)c1OC` [Example 76, 4-((2-methoxy-3-(pyrimidin-2-yl)phenyl)amino)-N-(methyl-d3)-6-((6-(trifluoromethyl)pyridazin-3-yl)amino)nicotinamide] was run?
**A.** 77 nM

**Q.** Which IC50 does the source give for `[2H]C([2H])([2H])NC(=O)c1nnc(NC(=O)C2CC2)cc1Nc1cccc(-c2ccc(S(C)(=O)=O)cn2)c1OC` [Example 110] here?
**A.** 480 nM

**Q.** How did the IC50 turn out when `[2H]C([2H])([2H])NC(=O)c1nnc(NC(=O)C2CC2)cc1Nc1cccc(-c2ncc(S(C)(=O)=O)cn2)c1OC` [Example 111] was run?
**A.** 216 nM

**Q.** Which IC50 does the source give for `[2H]C([2H])([2H])NC(=O)c1nnc(NC(=O)C2CC2)cc1Nc1cccc(-c2ncc(C(=O)N(C)C3CC3)cn2)c1OC` [Example 52, 6-(cyclopropanecarboxamido)-4-((3-(5-(cyclopropyl(methyl)carbamoyl)pyrimidin-2-yl)-2-methoxyphenyl)amino)-N-(methyl-d3)pyridazine-3-carboxamide] here?
**A.** 50 nM

**Q.** Which IC50 does the source give for `[2H]C([2H])([2H])NC(=O)c1nnc(NC(=O)C2CC2)cc1Nc1cccc(-c2cn(C)c(=O)cn2)c1OC` [Example 10, 6-(cyclopropanecarboxamido)-4-((2-methoxy-3-(4-methyl-5-oxo-4,5-dihydropyrazin-2-yl)phenyl)amino)-N-(methyl-d3)pyridazine-3-carboxamide] here?
**A.** 194 nM

**Q.** Which IC50 does the source give for `[2H]C([2H])([2H])NC(=O)c1cnc(Nc2cc(C#N)n(C)n2)cc1Nc1cccc(-c2ncccn2)c1OC` [Example 61, 6-((5-Cyano-1-methyl-1H-pyrazol-3-yl)amino)-4-((2-methoxy-3-(pyrimidin-2-yl)phenyl)amino)-N-(methyl-d3)nicotinamide] here?
**A.** 225 nM

**Q.** With `[2H]C([2H])([2H])NC(=O)c1nnc(Nc2ccc(C)nn2)cc1Nc1cccc(-c2ncc(F)cn2)c1OC` [Example 94, 4-((3-(5-fluoropyrimidin-2-yl)-2-methoxyphenyl)amino)-N-(methyl-d3)-6-((6-methylpyridazin-3-yl)amino)pyridazine-3-carboxamide] as the molecule, how does the IC50 read?
**A.** 38 nM

**Q.** How did the IC50 turn out when `[2H]C([2H])([2H])NC(=O)c1nnc(Nc2cc(C(C)(C)O)n(C)n2)cc1Nc1cc(F)cc(-c2ncccn2)c1OC` [Example 84, 4-((5-fluoro-2-methoxy-3-(pyrimidin-2-yl)phenyl)amino)-6-((5-(2-hydroxypropan-2-yl)-1-methyl-1H-pyrazol-3-yl)amino)-N-(methyl-d3)pyridazine-3-carboxamide] was run?
**A.** 19 nM

**Q.** Which IC50 does the source give for `[2H]C([2H])([2H])NC(=O)c1nnc(Nc2cn(CC)nn2)cc1Nc1cccc(-c2ncccn2)c1OC` [Example 88, 6-((1-ethyl-1H-1,2,3-triazol-4-yl)amino)-4-((2-methoxy-3-(pyrimidin-2-yl)phenyl)amino)-N-(methyl-d3)pyridazine-3-carboxamide] here?
**A.** 145 nM

**Q.** Which IC50 does the source give for `[2H]C([2H])([2H])NC(=O)c1nnc(NC(=O)C2CC2)cc1Nc1cc(F)cc(-c2ncccn2)c1OC` [Example 7, 6-(cyclopropanecarboxamido)-4-((5-fluoro-2-methoxy-3-(pyrimidin-2-yl)phenyl)amino)-N-(methyl-d3)pyridazine-3-carboxamide] here?
**A.** 196 nM

**Q.** How did the IC50 turn out when `[2H]C([2H])([2H])NC(=O)c1nnc(Nc2cc(C(C)(C)O)n(C)n2)cc1Nc1cccc(-c2ncccn2)c1OC` [Example 81, 6-((5-(2-hydroxypropan-2-yl)-1-methyl-1H-pyrazol-3-yl)amino)-4-((2-methoxy-3-(pyrimidin-2-yl)phenyl)amino)-N-(methyl-d3)pyridazine-3-carboxamide] was run?
**A.** 14 nM

**Q.** With `[2H]C([2H])([2H])NC(=O)c1nnc(NC(=O)C2CC2)cc1Nc1cccc(-c2cnc(C(C)(O)CF)cn2)c1OC` (stereo not shown) [Example 35, 6-(cyclopropanecarboxamido)-4-((3-(5-(1-fluoro-2-hydroxypropan-2-yl)pyrazin-2-yl)-2-methoxyphenyl)amino)-N-(methyl-d3)pyridazine-3-carboxamide] as the molecule, how does the IC50 read?
**A.** 107 nM

**Q.** `[2H]C([2H])([2H])NC(=O)c1cnc(Nc2ccc(OC)nn2)cc1Nc1cccc(-c2ncc(F)cn2)c1OC` [Example 74, 4-((3-(5-fluoropyrimidin-2-yl)-2-methoxyphenyl)amino)-6-((6-methoxypyridazin-3-yl)amino)-N-(methyl-d3)nicotinamide] was tested. Which IC50 did it give?
**A.** 87 nM

**Q.** Which IC50 does the source give for `[2H]C([2H])([2H])NC(=O)c1nnc(NC(=O)C2CC2)cc1Nc1cc(F)cc(-c2ncc(C(C)(O)CF)cn2)c1OC` (stereo not shown) [Example 32, 6-(cyclopropanecarboxamido)-4-((5-fluoro-3-(5-(1-fluoro-2-hydroxypropan-2-yl)pyrimidin-2-yl)-2-methoxyphenyl)amino)-N-(methyl-d3)pyridazine-3-carboxamide] here?
**A.** 71 nM

**Q.** How did the IC50 turn out when `[2H]C([2H])([2H])NC(=O)c1nnc(Nc2cc(C#N)n(C)n2)cc1Nc1cccc(-c2ncccn2)c1OC` [Example 80, 6-((5-cyano-1-methyl-1H-pyrazol-3-yl)amino)-4-((2-methoxy-3-(pyrimidin-2-yl)phenyl)amino)-N-(methyl-d3)pyridazine-3-carboxamide] was run?
**A.** 80 nM

**Q.** With `[2H]C([2H])([2H])NC(=O)c1cnc(NC(=O)C2CC2)cc1Nc1cccc(-c2ncc(F)cc2C#N)c1OC` [Example 115] as the molecule, how does the IC50 read?
**A.** 682 nM

**Q.** Which IC50 does the source give for `[2H]C([2H])([2H])NC(=O)c1nnc(Nc2ccc(OC)nn2)cc1Nc1cccc(-c2ncc(F)cn2)c1OC` [Example 97, 4-((3-(5-fluoropyrimidin-2-yl)-2-methoxyphenyl)amino)-6-((6-methoxypyridazin-3-yl)amino)-N-(methyl-d3)pyridazine-3-carboxamide] here?
**A.** 80 nM

**Q.** For `[2H]C([2H])([2H])NC(=O)c1nnc(NC(=O)C2CC2)cc1Nc1cc(F)cc(-c2ncc(C3(O)CCC3)cn2)c1OC` [Example 28, 6-(cyclopropanecarboxamido)-4-((5-fluoro-3-(5-(1-hydroxycyclobutyl)pyrimidin-2-yl)-2-methoxyphenyl)amino)-N-(methyl-d3)pyridazine-3-carboxamide], which IC50 is on record?
**A.** 170 nM

**Q.** Which IC50 does the source give for `[2H]C([2H])([2H])NC(=O)c1nnc(NC(=O)C2CC2)cc1Nc1cccc(-c2cc(=O)n(C)cn2)c1OC` [Example 12, 6-(cyclopropanecarboxamido)-4-((2-methoxy-3-(1-methyl-6-oxo-1,6-dihydropyrimidin-4-yl)phenyl)amino)-N-(methyl-d3)pyridazine-3-carboxamide] here?
**A.** 204 nM

**Q.** How did the IC50 turn out when `[2H]C([2H])([2H])NC(=O)c1nnc(NC(=O)C2CC2)cc1Nc1cccc(-c2ncc3ncn(C)c3n2)c1OC` [Example 1, 6-(Cyclopropanecarboxamido)-4-((2-methoxy-3-(9-methyl-9H-purin-2-yl)phenyl)amino)-N-(methyl-d3)pyridazine-3-carboxamide] was run?
**A.** 254 nM

**Q.** How did the IC50 turn out when `[2H]C([2H])([2H])NC(=O)c1nnc(NC(=O)C2CC2)cc1Nc1cc(F)cc(-c2ccc(C(C)(C)O)nn2)c1OC` [Example 22, 6-(cyclopropanecarboxamido)-4-((5-fluoro-3-(6-(2-hydroxypropan-2-yl)pyridazin-3-yl)-2-methoxyphenyl)amino)-N-(methyl-d3)pyridazine-3-carboxamide] was run?
**A.** 120 nM

**Q.** Which IC50 does the source give for `[2H]C([2H])([2H])NC(=O)c1nnc(NC(=O)C2CC2)cc1Nc1cccc(-c2cnc(N(C)C(C)=O)cn2)c1OC` [Example 56, 6-(Cyclopropanecarboxamido)-4-((2-methoxy-3-(5-(N-methylacetamido)pyrazin-2-yl)phenyl)amino)-N-(methyl-d3)pyridazine-3-carboxamide] here?
**A.** 117 nM
